Measurements as given in PMC4447534 (ChemMedChem, 2015).
“And” between values parts separate entries of the source, which are not always exact repeats. Equal values may be shown once. Read-outs that look alike come from different tables or passages of the source.

Tests used:
T. cruzi (amastigotes) [1] = assay: microbe, parasite or virus in culture; conditions: Trypanosoma cruzi, read-out: T. cruzi ED50
T. cruzi (amastigotes) [2] = conditions: for T. cruzi ED50: intracellular amastigotes, one experiment in triplicate, means ± S.D.; for SI (T. cruzi): selectivity index, Vero cells versus T. cruzi
Vero cells = assay: Cytotoxicity for Vero cells; type: cell-based; conditions: one experiment in triplicate, means ± S.D.
[3] = system: murine models of Chagas disease; conditions: ketoconazole as positive control; cited from earlier work
[4] = system: amastigotes of Trypanosoma cruzi; conditions: cited from earlier work
[5] = selectivity index, Vero cells versus T. gondii

O=C(Cn1ccnc1[N+](=O)[O-])NCc1ccccc1 [Benznidazole, reference compound]
IC50 (T. cruzi (amastigotes) [1]): 1.92 ± 0.55 µM

N#CSCCOc1ccc(Oc2cccc(C(F)(F)F)c2)cc1 [Compound 15, 4-[(3-Trifluoro)phenoxy]phenoxyethyl Thiocyanate]
T. cruzi ED50 (T. cruzi (amastigotes) [2]): 10.0 µM and 10.0 ± 2.5 µM | SI (T. cruzi) (T. cruzi (amastigotes) [2]): > 5.0 | Cytotoxicity ED50 (Vero cells): > 50.0 µM | SI (T. gondii) (T. gondii (tachyzoites)): > 31.1 | T. gondii ED50 (T. gondii (tachyzoites)): 1.6 µM and 1.66 ± 0.35 µM

N#CSCCOc1ccc(Oc2ccc(C(F)(F)F)cc2)cc1 [Compound 16, 4-[(4-Trifluoro)phenoxy]phenoxyethyl Thiocyanate]
T. cruzi ED50 (T. cruzi (amastigotes) [2]): 9.2 µM and 9.2 ± 1.8 µM | Cytotoxicity ED50 (Vero cells): > 50.0 µM | SI (T. gondii) (T. gondii (tachyzoites)): > 26.7 | T. gondii ED50 (T. gondii (tachyzoites)): 1.9 µM and 1.86 ± 0.38 µM

N#CSCCOc1ccc(Oc2ccc3ccccc3c2)cc1 [Compound 20, β-Naphtyloxyphenoxyethyl Thiocyanate]
Cytotoxicity ED50 (Vero cells): 104.7 ± 7.8 µM | T. gondii ED50 (T. gondii (tachyzoites)): 2.3 µM and 2.25 ± 0.84 µM | SI (T. gondii) (T. gondii (tachyzoites); [5]): 46.5

N#CSCCOc1ccc(Oc2ccccn2)cc1 [Compound 29, 4-(Pyridin-2-yloxy)phenoxyethyl Thiocyante]
Cytotoxicity ED50 (Vero cells): > 200.0 µM

N#CSCCOc1cccc(Oc2ccccc2Cl)c1 [Compound 46, 3-(2-Chlorophenoxy)phenoxyethyl Thiocyanate]
IC50 (T. cruzi (amastigotes) [1]): 11.9 ± 0.38 µM | Cytotoxicity ED50 (Vero cells): > 50.0 µM | SI (T. gondii) (T. gondii (tachyzoites); [5]): 23.4

N#CSCCOc1cccc(Oc2cccc(Cl)c2)c1 [Compound 47, 3-(3-Chlorophenoxy)phenoxyethyl Thiocyanate]
IC50 (T. cruzi (amastigotes) [1]): > 20 µM | T. cruzi ED50 (T. cruzi (amastigotes) [2]): vanishing biological activity | Cytotoxicity ED50 (Vero cells): > 200.0 µM

N#CSCCOc1cccc(Oc2ccc(Cl)cc2)c1 [Compound 48, 3-(4-Chlorophenoxy)phenoxyethyl Thiocyanate]
IC50 (T. cruzi (amastigotes) [1]): 6.27 ± 0.75 µM | T. cruzi ED50 (T. cruzi (amastigotes) [2]): very low micromolar range | SI (T. cruzi) (T. cruzi (amastigotes) [2]): 15.7 | Cytotoxicity ED50 (Vero cells): 98.4 ± 5.8 µM

COc1ccccc1Oc1cccc(OCCSC#N)c1 [Compound 49, 3-(2-Methoxyphenoxy)phenoxyethyl Thiocyanate]
IC50 (T. cruzi (amastigotes) [1]): 11.7 ± 2.52 µM | Cytotoxicity ED50 (Vero cells): 115.7 ± 39.8 µM | SI (T. gondii) (T. gondii (tachyzoites); [5]): 41.5

COc1cccc(Oc2cccc(OCCSC#N)c2)c1 [Compound 50, 3-(3-Methoxyphenoxy)-phenoxyethyl Thiocyanate]
IC50 (T. cruzi (amastigotes) [1]): 8.75 ± 0.33 µM | SI (T. cruzi) (T. cruzi (amastigotes) [2]): 11.0 | Cytotoxicity ED50 (Vero cells): 96.2 ± 37.5 µM | SI (T. gondii) (T. gondii (tachyzoites); [5]): 23.9

N#CSCCOc1cccc(Oc2ccccn2)c1 [Compound 60, 3-(2-Pyridyloxy)phenoxyethyl Thiocyanate]
IC50 (T. cruzi (amastigotes) [1]): > 10 µM | T. cruzi ED50 (T. cruzi (amastigotes) [2]): free of antiparasitic activity | Cytotoxicity ED50 (Vero cells): > 200.0 µM

N#CSCCOc1cccc(Oc2cccnc2)c1 [Compound 61, 3-(3-Pyridyn-3-yloxy)phenoxyethyl Thiocyanate]
SI (T. cruzi) (T. cruzi (amastigotes) [2]): 16.6 | Cytotoxicity ED50 (Vero cells): 124.0 ± 12.0 µM | SI (T. gondii) (T. gondii (tachyzoites)): 33.5

N#CSCCOc1cccc(Oc2ccncc2)c1 [Compound 62, 3-(4-Pyridyloxy)phenoxyethyl Thiocyanate]
IC50 (T. cruzi (amastigotes) [1]): > 10 µM | T. cruzi ED50 (T. cruzi (amastigotes) [2]): free of antiparasitic activity | Cytotoxicity ED50 (Vero cells): > 200.0 µM

[N-]=[N+]=NCCOc1ccc(Oc2ccccc2)cc1 [Compound 64, 4-Phenoxyphenoxyethyl Azide]
IC50 (T. cruzi (amastigotes) [1]): > 10 µM | Cytotoxicity ED50 (Vero cells): > 200.0 µM

N#CSCCOc1ccc(Br)cc1Br [Compound 68, 2,4-Dibromophenoxyethyl Thiocyanate]
IC50 (T. cruzi (amastigotes) [1]): > 20 µM | T. cruzi ED50 (T. cruzi (amastigotes) [2]): inactive | Cytotoxicity ED50 (Vero cells): > 50.0 µM

Cc1ccc(S(=O)(=O)OCCOc2cccnc2)cc1 [Compound 71, 3-Pyridyloxyethyl 4-Toluenesulfonate]
IC50 (T. cruzi (amastigotes) [1]): > 10 µM | Cytotoxicity ED50 (Vero cells): > 200 µM

N#CSCCOc1cccnc1 [Compound 72, 3-Pyridyloxyethyl Thiocyanate]
T. cruzi ED50 (T. cruzi (amastigotes) [2]): devoid of antiparasitic activity | T. gondii ED50 (T. gondii (tachyzoites); tachyzoites, one experiment in triplicate, means ± S.D.): devoid of antiparasitic activity

N#CSCCOc1ccc(Oc2ccccc2)cc1 [WC-9, 4-phenoxyphenoxyethyl thiocyanate, reference compound]
IC50 (T. cruzi (amastigotes) [1]): 5 ± 1.1 µM | effect on parasitemia [3]: able to impair parasitemia | ED50 against amastigotes of Trypanosoma cruzi [4]: low nanomolar range | Cytotoxicity ED50 (Vero cells): 82.6 ± 7.3 µM

α-Naphtyloxyphenylethyl Thiocyanate [Compound 24]
SI (T. cruzi) (T. cruzi (amastigotes) [2]): > 7 | T. gondii ED50 (T. gondii (tachyzoites)): 2.9 µM and 2.87 ± 0.19 µM | SI (T. gondii) (T. gondii (tachyzoites); [5]): 24.4
